Data on one molecule can be found in paper PMC12249582, “Ruxolitinib Modulates P-Glycoprotein Function, Delays T Cell Activation, and Impairs CCL19 Chemokine-Directed Migration in Human Cytotoxic T Lymphocytes” (International Journal of Molecular Sciences, 2025).

The experiment has as its target T1, P-glycoprotein (Pgp/ABCB1) (Homo sapiens, UniProt P08183).
T1 construct: human Pgp stably expressed in NIH-3T3 MDR1 cells (cells and raw membrane preparations)
As to the kind of experiment: calcein-AM efflux inhibition in NIH-3T3 MDR1 cells (IC50); vanadate-sensitive ATPase stimulation in Pgp membranes. In kind it is cell-based.

T1 sequence (P08183 whole entry): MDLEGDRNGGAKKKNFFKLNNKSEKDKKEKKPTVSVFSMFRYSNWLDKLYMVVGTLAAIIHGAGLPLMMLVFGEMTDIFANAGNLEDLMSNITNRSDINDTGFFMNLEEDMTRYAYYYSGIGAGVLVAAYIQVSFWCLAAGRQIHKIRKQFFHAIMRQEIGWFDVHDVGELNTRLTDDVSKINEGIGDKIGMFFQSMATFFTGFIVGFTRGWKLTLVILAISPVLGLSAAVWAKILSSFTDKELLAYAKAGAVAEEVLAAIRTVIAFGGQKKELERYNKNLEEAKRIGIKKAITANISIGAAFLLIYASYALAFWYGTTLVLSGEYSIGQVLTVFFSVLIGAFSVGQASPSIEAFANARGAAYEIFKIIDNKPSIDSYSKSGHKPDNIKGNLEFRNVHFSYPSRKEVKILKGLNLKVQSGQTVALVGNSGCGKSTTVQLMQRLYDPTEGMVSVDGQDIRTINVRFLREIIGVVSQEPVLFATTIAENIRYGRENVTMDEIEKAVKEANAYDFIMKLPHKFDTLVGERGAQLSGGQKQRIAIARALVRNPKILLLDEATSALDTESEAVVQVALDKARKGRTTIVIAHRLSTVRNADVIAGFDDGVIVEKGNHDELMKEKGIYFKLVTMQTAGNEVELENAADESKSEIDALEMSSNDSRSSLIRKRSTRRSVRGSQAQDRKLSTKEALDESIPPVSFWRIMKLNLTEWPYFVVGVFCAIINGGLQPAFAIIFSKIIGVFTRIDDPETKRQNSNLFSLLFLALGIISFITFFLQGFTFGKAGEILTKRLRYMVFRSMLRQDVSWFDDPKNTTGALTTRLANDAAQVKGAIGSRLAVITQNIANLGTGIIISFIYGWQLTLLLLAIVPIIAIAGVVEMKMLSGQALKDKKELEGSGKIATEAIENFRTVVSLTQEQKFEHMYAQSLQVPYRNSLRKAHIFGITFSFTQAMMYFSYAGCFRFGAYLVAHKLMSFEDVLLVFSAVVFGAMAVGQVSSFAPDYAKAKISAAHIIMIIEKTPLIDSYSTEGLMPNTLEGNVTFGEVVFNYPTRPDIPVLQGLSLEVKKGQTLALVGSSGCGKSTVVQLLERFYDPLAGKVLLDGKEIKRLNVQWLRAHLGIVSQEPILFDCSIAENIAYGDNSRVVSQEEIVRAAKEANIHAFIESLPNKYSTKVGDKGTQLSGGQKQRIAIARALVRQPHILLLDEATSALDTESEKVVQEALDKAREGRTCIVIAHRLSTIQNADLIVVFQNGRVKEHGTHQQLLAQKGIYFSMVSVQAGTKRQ

On to `N#CC[C@H](C1CCCC1)n1cc(-c2ncnc3[nH]ccc23)cn1` [RUX, ruxolitinib], for which the IC50 is roughly 13 µM.
